The test system of this assay is indigenous bacteria collected from the ultrasonic humidifier. In words: Bactericidal evaluation (photocatalyst composition solutions, first example group). The following applies: riboflavin sodium phosphate set to 10,000 ppm, no sacrificial agent. The format is cell-based. As for the experimental part:
The indigenous bacteria collected from the ultrasonic humidifier is adjusted to a predetermined concentration, then was added to an autoclave-sterilized normal bouillon medium (Eiken (register trade mark), manufactured by Eiken Chemical Co., Ltd.). Shaking culture for 24 hours was performed in a shaking incubator at 30° C. and 120 rpm. The solution when the number of bacteria reached about 1.5×10^9 CFU/ml was used as an inoculum solution.
Separately, the photocatalyst composition solutions obtained in the above Examples and Comparative Examples were also autoclave sterilized.
The inoculum solution was diluted with each of the photocatalyst composition solutions of the above Examples and Comparative Examples to prepare a solution having the number of bacteria of 1.5×10^7 CFU/ml, which was used as a test solution.
Two similar samples for each example and comparative example were prepared and stored under the following two conditions. The number of bacteria was measured using “Sani-Check BF” (manufactured by Biosan Laboratories, Inc.) and evaluation was performed according to the following evaluation criteria. […]

Molecules are shown by their SMILES.

On to `Cc1cc2nc3c(=O)[nH]c(=O)nc-3n(C[C@H](O)[C@H](O)[C@H](O)COP(=O)(O)O)c2cc1C` [riboflavin sodium phosphate], for which the “bactericidal effect as worded in the text” value is on record as “a certain degree of bactericidal effect”.

The values are drawn from US20230415137A1, “PHOTOCATALYST COMPOSITION, PHOTOCATALYST COMPOSITION SOLUTION, PHOTOCATALYST MEMBER, METHOD FOR USING PHOTOCATALYST COMPOSITION, AND SPACE DISINFECTION METHOD” (priority 2020, published 2023).
